pIC50: −log10 of the molar value.
Experiments:
Phospholipase A2 [1] = molecular target: Phospholipase A2 (Homo sapiens, UniProt P04054); assay: Inhibition of human recombinant sPLA2 G1B
Phospholipase A2 [2] = molecular target: Phospholipase A2 (Mus musculus, UniProt Q9Z0Y2); assay: Inhibition of mouse recombinant sPLA2 G1B
[3] = molecular target: T1, Phospholipase A2, membrane associated (Homo sapiens, UniProt P14555); assay: Inhibition of human recombinant sPLA2 G2A
T1 sequence (P14555 whole entry): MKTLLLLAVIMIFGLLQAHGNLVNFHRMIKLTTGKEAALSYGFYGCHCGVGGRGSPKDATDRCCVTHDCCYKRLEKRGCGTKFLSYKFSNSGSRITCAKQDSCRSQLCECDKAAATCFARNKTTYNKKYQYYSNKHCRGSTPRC

[4] = molecular target: T2, Group IIE secretory phospholipase A2 (Homo sapiens, UniProt Q9NZK7); assay: Inhibition of human recombinant sPLA2 G2E
T2 sequence (Q9NZK7 whole entry): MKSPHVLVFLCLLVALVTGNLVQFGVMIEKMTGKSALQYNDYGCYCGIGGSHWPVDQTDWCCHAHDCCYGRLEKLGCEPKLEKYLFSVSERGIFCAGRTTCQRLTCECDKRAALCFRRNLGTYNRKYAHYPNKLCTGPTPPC

[5] = molecular target: T3, Group IIE secretory phospholipase A2 (Mus musculus, UniProt Q9QUL3); assay: Inhibition of mouse recombinant sPLA2 G2E
T3 sequence (Q9QUL3 whole entry): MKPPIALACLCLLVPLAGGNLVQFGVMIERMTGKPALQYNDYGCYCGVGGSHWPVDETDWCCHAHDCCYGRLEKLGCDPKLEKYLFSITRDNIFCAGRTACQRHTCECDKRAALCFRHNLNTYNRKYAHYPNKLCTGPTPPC

[6] = molecular target: T4, Group 10 secretory phospholipase A2 (Homo sapiens, UniProt O15496); assay: Inhibition of human recombinant sPLA2 G10
T4 sequence (O15496 whole entry): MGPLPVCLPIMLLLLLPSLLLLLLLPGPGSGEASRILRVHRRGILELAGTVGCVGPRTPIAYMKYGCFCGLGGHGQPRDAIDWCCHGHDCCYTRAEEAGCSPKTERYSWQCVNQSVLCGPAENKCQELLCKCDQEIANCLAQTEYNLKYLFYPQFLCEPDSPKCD

[7] = molecular target: T5, Group 10 secretory phospholipase A2 (Mus musculus, UniProt Q9QXX3); assay: Inhibition of mouse recombinant sPLA2 G10
T5 sequence (Q9QXX3 whole entry): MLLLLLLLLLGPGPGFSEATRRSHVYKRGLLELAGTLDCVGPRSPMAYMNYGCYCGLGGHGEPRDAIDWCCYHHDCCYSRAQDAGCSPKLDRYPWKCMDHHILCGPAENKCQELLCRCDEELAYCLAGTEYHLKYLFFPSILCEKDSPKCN

[8] = molecular target: T6, Phospholipase A2, membrane associated (Mus musculus, UniProt P31482); assay: Inhibition of mouse recombinant sPLA2 G2A
T6 sequence (P31482 whole entry): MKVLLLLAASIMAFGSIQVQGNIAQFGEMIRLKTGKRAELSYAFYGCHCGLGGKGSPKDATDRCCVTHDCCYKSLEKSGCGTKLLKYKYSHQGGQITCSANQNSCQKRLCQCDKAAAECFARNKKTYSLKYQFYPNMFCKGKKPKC

Phospholipase A2 group V [9] = molecular target: T7, Phospholipase A2 group V (Homo sapiens, UniProt P39877); assay: Inhibition of human recombinant sPLA2 G5
T7 sequence (P39877 whole entry): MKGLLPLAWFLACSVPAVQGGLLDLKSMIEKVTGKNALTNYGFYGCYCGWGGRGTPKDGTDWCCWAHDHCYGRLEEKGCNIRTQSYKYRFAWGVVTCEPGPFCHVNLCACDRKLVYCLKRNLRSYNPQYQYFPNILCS

Phospholipase A2 group V [10] = molecular target: T8, Phospholipase A2 group V (Mus musculus, UniProt P97391); assay: Inhibition of mouse recombinant sPLA2 G5
T8 sequence (P97391 whole entry): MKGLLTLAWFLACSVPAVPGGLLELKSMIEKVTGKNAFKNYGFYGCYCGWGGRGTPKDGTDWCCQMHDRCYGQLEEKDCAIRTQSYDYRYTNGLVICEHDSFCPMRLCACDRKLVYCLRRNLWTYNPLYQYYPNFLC

Sequence of Phospholipase A2 (Homo sapiens, UniProt P04054) (P04054 whole entry): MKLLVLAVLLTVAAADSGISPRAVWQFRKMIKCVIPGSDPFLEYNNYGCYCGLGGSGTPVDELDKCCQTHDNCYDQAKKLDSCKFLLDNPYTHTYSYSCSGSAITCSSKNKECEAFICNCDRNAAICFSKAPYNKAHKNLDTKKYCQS
Sequence of Phospholipase A2 (Mus musculus, UniProt Q9Z0Y2) (Q9Z0Y2 whole entry): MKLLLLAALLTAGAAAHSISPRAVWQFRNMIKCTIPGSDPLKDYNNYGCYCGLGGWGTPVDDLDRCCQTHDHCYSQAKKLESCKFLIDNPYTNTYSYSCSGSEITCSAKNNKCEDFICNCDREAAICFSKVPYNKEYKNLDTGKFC

For `CCc1c(C(=O)C(N)=O)c2c(OCC(=O)O)cc(C)cc2n1Cc1ccccc1`, the pIC50 (Phospholipase A2 [1]) was 6.10, the pIC50 (Phospholipase A2 [2]) was 6.70 and the pIC50 [3] was 6.90. It also gave a pIC50 [4] of 7.30 and a pIC50 [5] of 7.12.
`Cc1cc(OCC(=O)O)c2c(C(=O)C(N)=O)c(C)n(Cc3ccccc3)c2c1` was tested, and the pIC50 [6] was 5.66, the pIC50 [7] was 5.60 and the pIC50 (Phospholipase A2 [1]) was 5.70. For the same compound, the pIC50 (Phospholipase A2 [2]) was 5.70, the pIC50 [3] was 6.52 and the pIC50 [8] was 6.90. For the same compound, the pIC50 [4] was 6.90, the pIC50 [5] was 6.40 and the pIC50 (Phospholipase A2 group V [9]) was 6.10. The pIC50 (Phospholipase A2 group V [10]) was 6.07.
Work on `Cc1c(C(=O)C(N)=O)c2c(OCC(=O)O)cccc2n1Cc1ccccc1` yielded a pIC50 [6] of 5.70, a pIC50 [7] of 5.60 and a pIC50 (Phospholipase A2 [1]) of 5.60. It also gave a pIC50 (Phospholipase A2 [2]) of 5.66, a pIC50 [3] of 6.56 and a pIC50 [8] of 6.90. It also gave a pIC50 [4] of 7.12, a pIC50 [5] of 6.40 and a pIC50 (Phospholipase A2 group V [9]) of 6.10. For the same compound, the pIC50 (Phospholipase A2 group V [10]) was 6.00.
In the case of `CCc1c(C(=O)C(N)=O)c2c(OCC(=O)O)cccc2n1Cc1ccccc1` [VARESPLADIB], the pIC50 [7] was 7.12, the pIC50 (Phospholipase A2 [1]) was 6.12 and the pIC50 (Phospholipase A2 [2]) was 6.85. It also gave a pIC50 [8] of 7.15, a pIC50 [4] of 7.30 and a pIC50 [5] of 7.12. It also gave a pIC50 (Phospholipase A2 group V [9]) of 6.30 and a pIC50 (Phospholipase A2 group V [10]) of 6.12.

— ChEMBL document CHEMBL1147661, “The first potent inhibitor of mammalian group X secreted phospholipase A2: elucidation of sites for enhanced binding” (J Med Chem, 2006)
